# Data from publication PMC7275043 (Nature Communications, 2020).
# Settings: mouse, in vivo, iv
substance,measurement,value
Ac-WDLIQLIVSDGSDLIQLIVSD-NH2 [12B],half-life in blood,< 10 min
